US8618114B2 (priority 2008, dated 2013)
Where a name gives a salt, the structure may show the parent alone.

The compounds below were run against T1, 5-HT6 receptor (Homo sapiens (Human), UniProt P50406) (assay: competitive radioligand binding ([3H] Lysergic acid diethylamide) to serotonin 5-HT6 receptors, HeLa cell membranes). Conditions: read-out: IC50, competitive assay of serotonin 5-HT6 receptor inhibition; displacement of 1.5 nM [3H] Lysergic acid diethylamide, 120 min at 37° C.
T1 sequence (P50406 whole entry): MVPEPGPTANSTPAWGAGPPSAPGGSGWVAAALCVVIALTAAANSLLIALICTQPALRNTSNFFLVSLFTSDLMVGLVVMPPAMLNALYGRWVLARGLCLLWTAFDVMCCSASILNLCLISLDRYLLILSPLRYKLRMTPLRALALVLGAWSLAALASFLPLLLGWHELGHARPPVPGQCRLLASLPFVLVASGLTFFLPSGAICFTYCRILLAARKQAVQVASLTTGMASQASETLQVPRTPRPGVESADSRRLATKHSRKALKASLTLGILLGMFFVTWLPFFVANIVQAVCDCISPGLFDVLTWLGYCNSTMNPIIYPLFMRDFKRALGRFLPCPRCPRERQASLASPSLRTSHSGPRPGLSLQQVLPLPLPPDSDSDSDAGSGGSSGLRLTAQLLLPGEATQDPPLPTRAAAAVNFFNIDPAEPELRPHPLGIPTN
Method: Determination of activity of the compounds of the general formula 1 in the setting of competitive binding to serotonin 5-HT6 receptors.
Screening of the disclosed compounds for their potential ability to interact with serotonin 5-HT6 receptors was carried out by method of radioligand binding. For this purpose membrane species were prepared from expressing recombinant human 5-HT6 receptors HeLa cells by means of their homogenization in glass homogenizer with subsequent separation of plasmatic membranes from cell nucli, mitochondria's and cell wreckages by differential centrifugation. Determination of tested compounds binding to 5-HT6 receptors was carried out according to the method described in [Monsma F J Jr, Shen Y, Ward R P, Hamblin M W and Sibley D R, Cloning and expression of a novel serotonin receptor with high affinity for tricyclic psychotropic drugs. […] After incubation the samples were filtered in vacuo on glass-microfiber filters G/F (Millipor, USA), filters were washed three times with cold solution of the medium and radioactivity was measured by scintillation counter MicroBeta 340 (PerkinElmer, USA). Nonspecific binding which made up 30% of overall binding was determined by incubation of membrane preparations with radioligand in the presence of 5 μM Serotonin (5-HT). Methiothepin was used as positive control. Binding of the tested compounds to the receptor was determined by their ability to displace the radioligand and expressed in percent of displacement. The percent of displacement was calculated according to the following equation:
[formula] wherein: TA—was overall radioactivity in the presence of radioligand only, CA—was radioactivity in the presence of radioligand and tested compound and NA—was radioactivity in the presence of radioligand and Serotonin (5 μM).

Row | SMILES | IC50
1 | CSc1nn2c(C)c(Cl)c(C)nc2c1S(=O)(=O)c1ccccc1 [1.1(4)] | < 0.01 µM
2 | CSc1nn2c(C)c(Oc3ccccc3)c(C)nc2c1S(=O)(=O)c1ccccc1 [1.1(6)] | 0.05 µM
3 | CSc1nn2ccc(C)nc2c1S(=O)(=O)c1ccc(F)cc1 [1.1.2(2), 5-methyl-2-methylsulfanyl-3-(4-fluorophenylsulfonyl)-pyrazolo[1,5-a]pyrimidine] | 0.05 µM
4 | CSc1nn2c(C)ccnc2c1S(=O)(=O)c1ccccc1 [1.1.3(1), 7-methyl-2-methylsulfanyl-3-phenylsulfonyl-pyrazolo[1,5-a]pyrimidine] | 0.04 µM
5 | CNc1nn2c(COC)cc(C)nc2c1S(=O)(=O)c1ccccc1 [1.2.4(1), 5-methyl-2-methylamino-7-(methoxymethyl)-3-phenylsulfonyl-pyrazolo[1,5-a]pyrimidine] | 0.00034 µM
6 | CNc1nn2c(N3CCOCC3)cc(C)nc2c1S(=O)(=O)c1ccccc1 [1.2.12(5), 5-methyl-2-methylamino-7-(morfolin-4-yl)-3-phenylsulfonyl-pyrazolo[1,5-a]pyrimidine] | 0.031 µM
7 | CCOC(=O)Cc1c(C)nc2c(S(=O)(=O)c3ccccc3)c(NC(C)C)nn2c1C [1.2.13(3)] | 0.00128 µM
8 | CNc1nn2c(C)c(CC(=O)N(C)C)c(C)nc2c1S(=O)(=O)c1ccccc1 [1.2.19(1).CH3CO2H] | 0.0153 µM

The remaining lines, values ahead:

Row | IC50 | SMILES
9 | < 0.01 µM | COc1cc(-c2cccnc2)nc2c(S(=O)(=O)c3ccccc3)c(SC)nn12 [1.1.8(3), 2-methylsulfanyl-7-methoxy-5-(pyridin-3-yl)-3-phenylsulfonyl-pyrazolo[1,5-a]pyrimidine]
10 | 0.018 µM | CNc1nn2cccnc2c1S(=O)(=O)c1ccc(F)cc1 [1.2.1(2), 2-methylamino-3-(4-fluorophenylsulfonyl)-pyrazolo[1,5-a]pyrimidine]
11 | 0.00501 µM | CNc1nn2cccnc2c1S(=O)(=O)c1cccc(Cl)c1 [1.2.1(4), 2-methylamino-3-(3-chlorophenylsulfonyl)-pyrazolo[1,5-a]pyrimidine]
12 | 0.00074 µM | CNc1nn2c(C)ccnc2c1S(=O)(=O)c1ccccc1 [1.2.3(1), 7-methyl-2-methylamino-3-phenylsulfonyl-pyrazolo[1,5-a]pyrimidine]

What follows are compounds tested against T1, 5-HT6 receptor (assay: functional assay for serotonin 5-HT6 receptor inhibition (serotonin-induced intracellular cAMP, LANCE cAMP kit, HEK 293 cells)). Conditions: HEK 293 cells with expressed 5-HT6 receptor; reduction of serotonin-induced intracellular cAMP.
Assay type: cell-based
Method: Determination of antagonistic activity of compounds of the general formula 1 towards 5-HT6 receptors. Compounds of the general formula 1 were tested for their ability to prevent 5-HT6 receptors activation by serotonin. HEK 293 cells (cells of human embryo's kidney) with artificially expressed 5-HT6 receptor, activation of which by serotonin leads to increasing the concentration of intracellular cAMP, were used. The level of intracellular cAMP was determined using reagent kit LANCE cAMP (PerkinElmer) according to the method described by the manufacturer of the kit [http://las.perkinelmer.com/content/Manuals/MAN_LANCEcAMP384KitUser.pdf]. Effectiveness of the compounds was estimated by their ability to reduce the level of intracellular cAMP induced by serotonin. Table 4 presents IC50 values for the compounds of general formula 1 in the setting of functional assay for serotonin 5-HT6 receptor inhibition. The data given testify their moderate or high antagonistic activity.

Row | SMILES | IC50
13 | CSc1nn2c(C)c(Cl)c(C)nc2c1S(=O)(=O)c1ccccc1 [1.1(4)] | 0.3 µM
14 | CSc1nn2c(C)c(Oc3ccccc3)c(C)nc2c1S(=O)(=O)c1ccccc1 [1.1(6)] | > 10 µM
15 | CSc1nn2c(C)c(Oc3cccnc3)c(C)nc2c1S(=O)(=O)c1ccccc1 [1.1(7)] | 0.514 µM
16 | CSc1nn2cccnc2c1S(=O)(=O)c1ccccc1 [1.1.1(1), 2-methylsulfanyl-3-phenylsulfonyl-pyrazolo[1,5-a]pyrimidine] | 5.2 µM
17 | CSc1nn2cccnc2c1S(=O)(=O)c1cccc(Cl)c1 [1.1.1(3)] | 0.473 µM
18 | CSc1nn2cccnc2c1S(=O)(=O)c1ccc(F)c(Cl)c1 [1.1.1(4)] | 0.912 µM
19 | CSc1nn2cccnc2c1S(=O)(=O)c1cccc(C)c1 [1.1.1(6)] | 2.2 µM
20 | CSc1nn2cccnc2c1S(=O)(=O)c1ccc(F)cc1 [1.1.1(7)] | 1.87 µM
21 | CSc1nn2ccc(C)nc2c1S(=O)(=O)c1ccccc1 [1.1.2(1), 5-methyl-2-methylsulfanyl-3-phenylsulfonyl-pyrazolo[1,5-a]pyrimidine] | 0.45 µM
22 | CSc1nn2ccc(C)nc2c1S(=O)(=O)c1ccc(F)cc1 [1.1.2(2), 5-methyl-2-methylsulfanyl-3-(4-fluorophenylsulfonyl)-pyrazolo[1,5-a]pyrimidine] | 0.996 µM
23 | CSc1nn2ccc(C)nc2c1S(=O)(=O)c1ccc(F)c(Cl)c1 [1.1.2(5), 5-methyl-2-methylsulfanyl-3-(4-fluoro-3-chlorophenylsulfonyl)-pyrazolo[1,5-a]pyrimidine] | 0.187 µM
24 | CSc1nn2c(C)ccnc2c1S(=O)(=O)c1ccccc1 [1.1.3(1), 7-methyl-2-methylsulfanyl-3-phenylsulfonyl-pyrazolo[1,5-a]pyrimidine] | 1.11 µM
25 | CSc1nn2c(C)ccnc2c1S(=O)(=O)c1ccc(F)c(Cl)c1 [1.1.3(5), 7-methyl-2-methylsulfanyl-3-(4-fluoro-3-chlorophenylsulfonyl)-pyrazolo[1,5-a]pyrimidine] | 0.156 µM
26 | COCc1cc(C)n2nc(SC)c(S(=O)(=O)c3ccccc3)c2n1 [1.1.5(1), 7-methyl-2-methylsulfanyl-5-(methoxymethyl)-3-phenylsulfonyl-pyrazolo[1,5-a]pyrimidine] | 0.414 µM
27 | CSc1nn2c(CO)cc(C)nc2c1S(=O)(=O)c1ccccc1 [1.1.6(1), 7-(hydroxymethyl)-5-methyl-2-methylsulfanyl-3-phenylsulfonyl-pyrazolo[1,5-a]pyrimidine] | 0.073 µM
28 | COc1cc(-c2ccccn2)nc2c(S(=O)(=O)c3ccccc3)c(SC)nn12 [1.1.8(2), 2-methylsulfanyl-7-methoxy-5-(pyridin-2-yl)-3-phenylsulfonyl-pyrazolo[1,5-a]pyrimidine] | 30.1 µM

Row | SMILES | IC50
29 | CNc1nn2c(N3CCOCC3)cc(C)nc2c1S(=O)(=O)c1ccccc1 [1.1.12(5)] | 0.197 µM
30 | CNc1nn2c(C)c(Cl)c(C)nc2c1S(=O)(=O)c1ccccc1 [1.2(1)] | 0.052 µM
31 | CNc1nn2c(-c3ccccn3)cc(-c3ccccn3)nc2c1S(=O)(=O)c1ccccc1 [1.2(4)] | 0.723 µM
32 | CNc1nn2cccnc2c1S(=O)(=O)c1ccccc1 [1.2.1(1), 2-methylamino-3-phenylsulfonyl-pyrazolo[1,5-a]pyrimidine] | 0.076 µM
33 | CNc1nn2c(COC)cc(C)nc2c1S(=O)(=O)c1ccccc1 [1.2.4(1), 5-methyl-2-methylamino-7-(methoxymethyl)-3-phenylsulfonyl-pyrazolo[1,5-a]pyrimidine] | 0.101 µM
34 | CNc1nn2c(-c3cccnc3)ccnc2c1S(=O)(=O)c1ccccc1 [1.2.9(2), 2-methylamino-7-(pyridin-3-yl)-3-phenylsulfonyl-pyrazolo[1,5-a]pyrimidine] | 1.04 µM
35 | CNc1nn2c(-c3cccnc3)cc(C)nc2c1S(=O)(=O)c1ccccc1 [1.2.9(7), 5-methyl-2-methylamino-7-(pyridin-3-yl)-3-phenylsulfonyl-pyrazolo[1,5-a]pyrimidine] | 0.341 µM
36 | CNc1nn2c(N(C)CCN(C)C)cc(C)nc2c1S(=O)(=O)c1ccccc1 [1.2.12(11)] | 0.172 µM
37 | CNc1nn2c(N(C)CCN(C)C)cc(C)nc2c1S(=O)(=O)c1ccccc1 [1.2.12(12)] | 1.86 µM
38 | CNc1nn2c(C)c(CCCN)c(C)nc2c1S(=O)(=O)c1ccccc1 [1.2.22(4).HCl] | 0.078 µM
39 | CNc1nn2c(C)c(CCN(C)C)c(C)nc2c1S(=O)(=O)c1ccccc1 [1.2.22(14).HCl] | 0.0564 µM
40 | CNc1nn2c(C)cc(CN(C)C)nc2c1S(=O)(=O)c1ccccc1 [1.2.23(10).HCl] | 0.06 µM
41 | CNc1nn2c(C)cc(CN(C)C)nc2c1S(=O)(=O)c1cccc(Cl)c1 [1.2.23(11).HCl] | 0.067 µM
42 | CNc1nn2c(C)cc(CN(C)C)nc2c1S(=O)(=O)c1cccc(F)c1 [1.2.23(12).HCl] | 0.07 µM
43 | CNc1nn2c(CCN(C)C)cc(C)nc2c1S(=O)(=O)c1ccccc1 [1.2.24(14).HCl] | 0.899 µM

Second part, the compound after the results:

Row | IC50 | SMILES
44 | < 0.01 µM | COc1cc(-c2cccnc2)nc2c(S(=O)(=O)c3ccccc3)c(SC)nn12 [1.1.8(3), 2-methylsulfanyl-7-methoxy-5-(pyridin-3-yl)-3-phenylsulfonyl-pyrazolo[1,5-a]pyrimidine]
45 | 0.045 µM | CNc1nn2cccnc2c1S(=O)(=O)c1ccc(F)cc1 [1.2.1(2), 2-methylamino-3-(4-fluorophenylsulfonyl)-pyrazolo[1,5-a]pyrimidine]
46 | 0.024 µM | CNc1nn2cccnc2c1S(=O)(=O)c1cccc(Cl)c1 [1.2.1(4), 2-methylamino-3-(3-chlorophenylsulfonyl)-pyrazolo[1,5-a]pyrimidine]
47 | 0.016 µM | CNc1nn2ccc(C)nc2c1S(=O)(=O)c1ccccc1 [1.2.2(1), 5-methyl-2-methylamino-3-phenylsulfonyl-pyrazolo[1,5-a]pyrimidine]
48 | 0.003 µM | CNc1nn2c(C)ccnc2c1S(=O)(=O)c1ccccc1 [1.2.3(1), 7-methyl-2-methylamino-3-phenylsulfonyl-pyrazolo[1,5-a]pyrimidine]
49 | 0.004 µM | CNc1nn2c(C)cc(COC)nc2c1S(=O)(=O)c1ccccc1 [1.2.5(1), 7-methyl-2-methylamino-5-(methoxymethyl)-3-phenylsulfonyl-pyrazolo[1,5-a]pyrimidine]
50 | 0.004 µM | CNc1nn2c(CO)cc(C)nc2c1S(=O)(=O)c1ccccc1 [1.2.6(1), 7-(hydroxymethyl)-5-methyl-2-methylamino-3-phenylsulfonyl-pyrazolo[1,5-a]pyrimidine]
51 | 0.004 µM | CNc1nn2c(C)cc(-c3ccncc3)nc2c1S(=O)(=O)c1ccccc1 [1.2.8(8), 7-methyl-2-methylamino-5-(pyridin-4-yl)-3-phenylsulfonyl-pyrazolo[1,5-a]pyrimidine]
52 | 0.009 µM | CNc1nn2c(NC)cc(C)nc2c1S(=O)(=O)c1ccccc1 [1.2.12(1), 2,7-di(methylamino)-5-methyl-3-phenylsulfonyl-pyrazolo[1,5-a]pyrimidine]
53 | 0.012 µM | CNc1nn2c(N(C)C)cc(C)nc2c1S(=O)(=O)c1ccccc1 [1.2.12(2), 7-dimethylamino-5-methyl-2-methylamino-3-phenylsulfonyl-pyrazolo[1,5-a]pyrimidine]
54 | 0.013 µM | CNc1nn2c(N(C)C)cc(-c3cccnc3)nc2c1S(=O)(=O)c1ccccc1 [1.2.12(9), 7-dimethylamino-2-methylamino-5-(pyridin-3-yl)-3-phenylsulfonyl-pyrazolo[1,5-a]pyrimidine]
55 | 0.0252 µM | CNc1nn2c(C)c(CN)c(C)nc2c1S(=O)(=O)c1cccc(F)c1 [1.2.22(6).HCl]
56 | 0.026 µM | CNc1nn2c(C)c(CN(C)C)c(C)nc2c1S(=O)(=O)c1ccccc1 [1.2.22(10).HCl]
57 | 0.022 µM | CNc1nn2c(C)c(CN(C)C)c(C)nc2c1S(=O)(=O)c1cccc(Cl)c1 [1.2.22(11).HCl]
58 | 0.006 µM | CNc1nn2c(C)c(N(C)C)c(C)nc2c1S(=O)(=O)c1ccccc1 [1.2.22(24).HCl]
59 | 0.037 µM | CNc1nn2c(C)cc(CN)nc2c1S(=O)(=O)c1ccc(F)cc1 [1.2.23(2).HCl]
60 | 0.015 µM | CNc1nn2c(CN)cc(C)nc2c1S(=O)(=O)c1ccccc1 [1.2.24(1).HCl]
61 | 0.022 µM | CNc1nn2c(CN)cc(C)nc2c1S(=O)(=O)c1ccc(F)cc1 [1.2.24(2).HCl]
62 | 0.03 µM | CNc1nn2c(CCN)cc(C)nc2c1S(=O)(=O)c1ccccc1 [1.2.24(3).HCl]
63 | 0.021 µM | CNc1nn2c(CN(C)C)cc(C)nc2c1S(=O)(=O)c1ccccc1 [1.2.24(10).HCl]
64 | 0.033 µM | CNc1nn2c(CN(C)C)cc(C)nc2c1S(=O)(=O)c1cccc(Cl)c1 [1.2.24(11).HCl]
65 | 0.035 µM | CNc1nn2c(CN(C)C)cc(C)nc2c1S(=O)(=O)c1cccc(F)c1 [1.2.24(12).HCl]
